Results from ChEMBL document CHEMBL2346549, “Vavilosides A1/A2-B1/B2, new furostane glycosides from the bulbs of Allium vavilovii with cytotoxic activity” (Bioorg Med Chem, 2013).

Experiments:
WEHI-164 = assay: Cytotoxicity against mouse WEHI164 cells assessed as growth inhibition after 72 hrs by MTT assay; assay type: functional, cell-based; settings: WEHI-164, 72 h
J774 = assay: Cytotoxicity against mouse J774 cells assessed as growth inhibition after 72 hrs by MTT assay; assay type: functional, cell-based; settings: J774, 72 h

| Compound | IC50 (WEHI-164) | IC50 (J774) |
| --- | --- | --- |
| C[C@H](CCC1(O)O[C@H]2C[C@H]3[C@@H]4CC=C5C[C@@H](O)C[C@@H](O[C@@H]6OC[C@@H](O)[C@H](O)[C@H]6O[C@@H]6O[C@@H](C)[C@H](O)[C@@H](O)[C@H]6O)[C@]5(C)[C@H]4CC[C@]3(C)[C@H]2[C@@H]1C)CO[C@@H]1O[C@@H](C)[C@H](O)[C@@H](O)[C@H]1O (mixture of isomers) | 3.1 µg/mL | 3.5 µg/mL |
| C[C@H](CCC1(O)O[C@H]2C[C@H]3[C@@H]4CC=C5C[C@@H](O)C[C@@H](O[C@@H]6O[C@H](CO)[C@H](O)[C@H](O)[C@H]6O[C@@H]6O[C@@H](C)[C@H](O)[C@@H](O)[C@H]6O)[C@]5(C)[C@H]4CC[C@]3(C)[C@H]2[C@@H]1C)CO[C@@H]1O[C@@H](C)[C@H](O)[C@@H](O)[C@H]1O (mixture of isomers) | 4.7 µg/mL | 5.1 µg/mL |
| C[C@H](CCC1(O)O[C@H]2C[C@H]3[C@@H]4CC=C5C[C@@H](O)C[C@@H](O[C@@H]6O[C@H](CO)[C@H](O)[C@H](O)[C@H]6O)[C@]5(C)[C@H]4CC[C@]3(C)[C@H]2[C@@H]1C)CO[C@@H]1O[C@H](CO)[C@@H](O)[C@H](O)[C@H]1O[C@@H]1O[C@@H](C)[C@H](O)[C@@H](O)[C@H]1O (mixture of isomers) [ASCALONICOSIDE A1/A2] | 3.7 µg/mL | 4 µg/mL |
